Structures are written as SMILES.

This is an account of results in ChEMBL document CHEMBL5058643, “Data for DCP probe BI-2081” (2022).

Data set [1] has as its target 3',5'-cyclic-AMP phosphodiesterase 4D (Homo sapiens) (UniProt Q08499). Briefly: PDE4D2 Eurofins SafetyScreen44 (BI). The note with it: Compound concentration 10.0 uM.
Data set [2] concerns the target Prostaglandin G/H synthase 1 (Homo sapiens) (UniProt P23219). The data set is described as follows: COX-1 Eurofins SafetyScreen44 (BI). The conditions noted are these: Compound concentration 10.0 uM.
The target of data set [3] is Muscarinic acetylcholine receptor M4 (Homo sapiens) (UniProt P08173). The note with it: Compound concentration 10.0 uM.
In data set [4] the target is Sodium-dependent noradrenaline transporter (Homo sapiens) (UniProt P23975). Briefly: NEUP/H Eurofins SafetyScreen44 (BI). The note with it: Compound concentration 10.0 uM.
For data set [5], the target named is Muscarinic acetylcholine receptor M3 (Homo sapiens, UniProt P20309). The data set is described as follows: M3/H Eurofins SafetyScreen44 (BI). The note with it: Compound concentration 10.0 uM.
In data set [6] the target is 5-hydroxytryptamine receptor 2A (Homo sapiens) (UniProt P28223). The data set is described as follows: 5HT2AH_AGON Eurofins SafetyScreen44 (BI). The conditions noted are these: filed as agonist, Compound concentration 10.0 uM.
The target in data set [7] is T1, 5-hydroxytryptamine receptor 1A (Homo sapiens) (UniProt P08908).
T1 sequence (whole entry): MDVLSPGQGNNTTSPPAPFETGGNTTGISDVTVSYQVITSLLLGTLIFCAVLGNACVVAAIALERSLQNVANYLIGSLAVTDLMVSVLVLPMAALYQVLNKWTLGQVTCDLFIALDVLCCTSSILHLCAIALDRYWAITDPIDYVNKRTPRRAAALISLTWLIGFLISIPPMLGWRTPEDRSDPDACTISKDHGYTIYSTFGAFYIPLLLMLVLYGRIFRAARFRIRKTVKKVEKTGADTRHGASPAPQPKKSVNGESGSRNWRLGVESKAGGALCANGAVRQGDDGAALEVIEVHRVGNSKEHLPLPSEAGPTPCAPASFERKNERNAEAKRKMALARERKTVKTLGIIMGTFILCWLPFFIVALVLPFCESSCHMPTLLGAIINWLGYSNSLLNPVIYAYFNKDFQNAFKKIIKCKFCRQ
Briefly: 5HT1A/H Eurofins SafetyScreen44 (BI). The note with it: Compound concentration 10.0 uM.

For data set [8], the target named is MAO-A (amine oxidase [flavin-containing] A) (Rattus norvegicus, UniProt P21396). Briefly: MAO-A_ANTAG Eurofins SafetyScreen44 (BI). The conditions noted are these: compound concentration 10 uM, read-out: % Ctrl. Details: mode of action antagonist; scale not given: the % may be the effect or the level left; call rule not given here.
For data set [9], the target named is Estrogen receptor (Homo sapiens) (UniProt P03372). Briefly: ERALPHA/H Eurofins SafetyScreen44 (BI). The conditions noted are these: Compound concentration 10.0 uM.
For data set [10], the target named is Endothelin receptor type B (Homo sapiens) (UniProt P24530). The data set is described as follows: ETB/HUM Eurofins SafetyScreen44 (BI). The note with it: Compound concentration 10.0 uM.
The target of data set [11] is Adenosine receptor A1 (Homo sapiens) (UniProt P30542). The data set is described as follows: A1/HU Eurofins SafetyScreen44 (BI). The conditions noted are these: Compound concentration 10.0 uM.
For data set [12], the target named is Protein kinase C alpha type (Mus musculus) (UniProt P20444). Briefly: PHORBOLE/M Eurofins SafetyScreen44 (BI). The conditions noted are these: Compound concentration 10.0 uM.
Data set [13] addresses T2, Alpha-2A adrenergic receptor (Homo sapiens) (UniProt P08913).
T2 sequence (whole entry): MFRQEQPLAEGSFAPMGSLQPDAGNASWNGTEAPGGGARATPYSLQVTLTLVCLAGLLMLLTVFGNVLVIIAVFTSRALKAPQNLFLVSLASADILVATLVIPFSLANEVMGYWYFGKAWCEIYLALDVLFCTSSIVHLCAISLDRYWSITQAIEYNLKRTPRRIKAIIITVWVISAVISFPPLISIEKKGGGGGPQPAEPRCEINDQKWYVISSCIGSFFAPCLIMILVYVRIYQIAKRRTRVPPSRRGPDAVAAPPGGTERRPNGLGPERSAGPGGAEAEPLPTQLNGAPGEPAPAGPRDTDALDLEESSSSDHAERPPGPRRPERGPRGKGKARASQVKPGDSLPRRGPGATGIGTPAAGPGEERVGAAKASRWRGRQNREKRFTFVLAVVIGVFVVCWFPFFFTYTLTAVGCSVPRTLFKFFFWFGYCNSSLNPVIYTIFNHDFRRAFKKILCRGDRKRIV
Briefly: ALPHA2A/H Eurofins SafetyScreen44 (BI).

For data set [14], the target named is Gamma-aminobutyric acid receptor subunit alpha-1 (Rattus norvegicus) (UniProt P62813). Briefly: GABAACENTR Eurofins SafetyScreen44 (BI). The conditions noted are these: Compound concentration 10.0 uM.
For data set [15] the target is unchanged. The data set is described as follows: GABAA MUSCIMOL CENT Eurofins SafetyScreen44 (BI). The note with it: Compound concentration 10.0 uM.
The target in data set [16] is T3, Alpha-1A adrenergic receptor (Homo sapiens) (UniProt P35348).
T3 sequence (whole entry): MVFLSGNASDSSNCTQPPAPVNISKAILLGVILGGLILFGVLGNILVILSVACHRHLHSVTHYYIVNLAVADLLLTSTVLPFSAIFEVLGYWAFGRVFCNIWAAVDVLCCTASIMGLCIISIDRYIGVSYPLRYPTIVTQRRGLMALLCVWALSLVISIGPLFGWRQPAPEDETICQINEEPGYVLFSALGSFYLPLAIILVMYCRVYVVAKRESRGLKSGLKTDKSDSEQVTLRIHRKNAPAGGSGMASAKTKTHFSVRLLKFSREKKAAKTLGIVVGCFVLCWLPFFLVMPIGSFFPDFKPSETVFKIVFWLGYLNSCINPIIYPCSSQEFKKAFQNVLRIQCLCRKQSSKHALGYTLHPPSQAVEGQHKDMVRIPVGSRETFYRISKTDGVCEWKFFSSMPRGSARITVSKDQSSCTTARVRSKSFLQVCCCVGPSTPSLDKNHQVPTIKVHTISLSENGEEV
The note with it: Compound concentration 10.0 uM.

Data set [17] addresses P2X purinoceptor (Oryctolagus cuniculus) (UniProt G1U3D6). The data set is described as follows: P2X/RB Eurofins SafetyScreen44 (BI). The note with it: Compound concentration 10.0 uM.
In data set [18] the target is T4, Muscarinic acetylcholine receptor M2 (Homo sapiens) (UniProt P08172).
T4 sequence (whole entry): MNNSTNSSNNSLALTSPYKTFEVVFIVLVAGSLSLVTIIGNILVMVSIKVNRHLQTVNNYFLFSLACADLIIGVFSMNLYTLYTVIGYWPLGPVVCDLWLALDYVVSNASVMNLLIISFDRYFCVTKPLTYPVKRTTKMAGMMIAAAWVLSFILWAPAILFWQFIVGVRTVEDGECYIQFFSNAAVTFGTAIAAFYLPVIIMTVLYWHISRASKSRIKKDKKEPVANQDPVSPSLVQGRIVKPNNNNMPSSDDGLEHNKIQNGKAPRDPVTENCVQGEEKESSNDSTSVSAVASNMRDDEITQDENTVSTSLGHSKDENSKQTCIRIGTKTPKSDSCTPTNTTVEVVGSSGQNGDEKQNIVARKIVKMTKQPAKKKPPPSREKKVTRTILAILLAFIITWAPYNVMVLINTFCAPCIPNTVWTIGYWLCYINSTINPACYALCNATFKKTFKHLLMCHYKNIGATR
Briefly: M2/HU Eurofins SafetyScreen44 (BI). The conditions noted are these: Compound concentration 10.0 uM.

The target in data set [19] is Kappa-type opioid receptor (Homo sapiens) (UniProt P41145). The data set is described as follows: KAPPA/HU Eurofins SafetyScreen44 (BI). The note with it: Compound concentration 10.0 uM.
The target in data set [20] is Interleukin-1 beta (Mus musculus) (UniProt P10749). Briefly: IL-1 Eurofins SafetyScreen44 (BI). The note with it: Compound concentration 10.0 uM.
Chain of Interleukin-1 beta (Mus musculus) (P10749 118-269 limits assumed): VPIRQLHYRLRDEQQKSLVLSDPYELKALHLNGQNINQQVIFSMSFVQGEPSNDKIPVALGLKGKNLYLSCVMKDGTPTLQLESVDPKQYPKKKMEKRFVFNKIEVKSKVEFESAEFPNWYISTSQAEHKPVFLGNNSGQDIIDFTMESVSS

Chain of Muscarinic acetylcholine receptor M4 (Homo sapiens) (P08173 whole entry): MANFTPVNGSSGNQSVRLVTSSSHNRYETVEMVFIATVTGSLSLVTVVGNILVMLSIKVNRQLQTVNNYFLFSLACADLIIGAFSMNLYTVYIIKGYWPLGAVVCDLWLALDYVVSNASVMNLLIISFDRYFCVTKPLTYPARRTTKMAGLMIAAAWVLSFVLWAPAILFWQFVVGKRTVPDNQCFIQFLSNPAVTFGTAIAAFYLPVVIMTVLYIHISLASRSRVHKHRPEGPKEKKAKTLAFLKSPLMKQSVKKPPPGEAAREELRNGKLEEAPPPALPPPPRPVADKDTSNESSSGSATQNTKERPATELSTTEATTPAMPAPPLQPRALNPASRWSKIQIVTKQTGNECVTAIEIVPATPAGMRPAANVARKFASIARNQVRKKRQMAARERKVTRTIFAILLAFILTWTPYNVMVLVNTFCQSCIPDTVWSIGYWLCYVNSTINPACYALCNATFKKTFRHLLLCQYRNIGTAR
Chain of Gamma-aminobutyric acid receptor subunit alpha-1 (Rattus norvegicus) (P62813 whole entry): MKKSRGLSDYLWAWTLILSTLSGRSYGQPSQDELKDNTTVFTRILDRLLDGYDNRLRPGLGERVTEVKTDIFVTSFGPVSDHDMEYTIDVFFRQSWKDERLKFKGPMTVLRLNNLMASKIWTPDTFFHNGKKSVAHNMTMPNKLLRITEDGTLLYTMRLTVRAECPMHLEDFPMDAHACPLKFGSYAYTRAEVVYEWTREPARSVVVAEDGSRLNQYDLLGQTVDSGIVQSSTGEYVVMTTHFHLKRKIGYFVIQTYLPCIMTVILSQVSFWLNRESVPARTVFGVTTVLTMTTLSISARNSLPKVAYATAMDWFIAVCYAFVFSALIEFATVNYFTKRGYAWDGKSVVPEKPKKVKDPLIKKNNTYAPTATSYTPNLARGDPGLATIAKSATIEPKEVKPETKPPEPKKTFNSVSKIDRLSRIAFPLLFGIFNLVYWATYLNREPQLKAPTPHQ
Chain of Muscarinic acetylcholine receptor M3 (P20309 whole entry, looked up): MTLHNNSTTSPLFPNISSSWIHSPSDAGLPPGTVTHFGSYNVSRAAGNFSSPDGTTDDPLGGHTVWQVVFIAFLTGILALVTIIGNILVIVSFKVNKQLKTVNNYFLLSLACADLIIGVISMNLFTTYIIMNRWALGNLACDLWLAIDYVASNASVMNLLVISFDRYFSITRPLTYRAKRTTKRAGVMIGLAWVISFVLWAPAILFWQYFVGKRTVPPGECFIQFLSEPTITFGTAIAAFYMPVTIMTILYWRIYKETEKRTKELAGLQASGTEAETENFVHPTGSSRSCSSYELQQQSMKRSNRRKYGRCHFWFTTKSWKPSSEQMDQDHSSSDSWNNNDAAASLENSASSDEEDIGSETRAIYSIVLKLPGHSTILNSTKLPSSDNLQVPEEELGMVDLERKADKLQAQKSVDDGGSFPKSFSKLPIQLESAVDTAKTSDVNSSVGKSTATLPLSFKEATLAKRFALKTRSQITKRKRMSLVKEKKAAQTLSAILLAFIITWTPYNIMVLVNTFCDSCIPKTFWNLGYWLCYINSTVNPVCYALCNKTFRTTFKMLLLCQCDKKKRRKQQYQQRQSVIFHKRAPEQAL
Chain of Adenosine receptor A1 (Homo sapiens) (P30542 whole entry): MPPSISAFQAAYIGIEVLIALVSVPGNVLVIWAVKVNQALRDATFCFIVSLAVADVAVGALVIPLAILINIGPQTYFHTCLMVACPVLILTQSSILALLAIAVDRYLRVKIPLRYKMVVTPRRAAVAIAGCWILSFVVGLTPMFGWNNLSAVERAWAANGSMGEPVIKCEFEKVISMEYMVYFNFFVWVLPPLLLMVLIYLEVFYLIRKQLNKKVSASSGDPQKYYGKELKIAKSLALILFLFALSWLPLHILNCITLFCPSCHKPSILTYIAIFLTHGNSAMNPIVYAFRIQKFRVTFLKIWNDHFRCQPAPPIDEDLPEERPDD
Chain of 3',5'-cyclic-AMP phosphodiesterase 4D (Homo sapiens) (Q08499 whole entry): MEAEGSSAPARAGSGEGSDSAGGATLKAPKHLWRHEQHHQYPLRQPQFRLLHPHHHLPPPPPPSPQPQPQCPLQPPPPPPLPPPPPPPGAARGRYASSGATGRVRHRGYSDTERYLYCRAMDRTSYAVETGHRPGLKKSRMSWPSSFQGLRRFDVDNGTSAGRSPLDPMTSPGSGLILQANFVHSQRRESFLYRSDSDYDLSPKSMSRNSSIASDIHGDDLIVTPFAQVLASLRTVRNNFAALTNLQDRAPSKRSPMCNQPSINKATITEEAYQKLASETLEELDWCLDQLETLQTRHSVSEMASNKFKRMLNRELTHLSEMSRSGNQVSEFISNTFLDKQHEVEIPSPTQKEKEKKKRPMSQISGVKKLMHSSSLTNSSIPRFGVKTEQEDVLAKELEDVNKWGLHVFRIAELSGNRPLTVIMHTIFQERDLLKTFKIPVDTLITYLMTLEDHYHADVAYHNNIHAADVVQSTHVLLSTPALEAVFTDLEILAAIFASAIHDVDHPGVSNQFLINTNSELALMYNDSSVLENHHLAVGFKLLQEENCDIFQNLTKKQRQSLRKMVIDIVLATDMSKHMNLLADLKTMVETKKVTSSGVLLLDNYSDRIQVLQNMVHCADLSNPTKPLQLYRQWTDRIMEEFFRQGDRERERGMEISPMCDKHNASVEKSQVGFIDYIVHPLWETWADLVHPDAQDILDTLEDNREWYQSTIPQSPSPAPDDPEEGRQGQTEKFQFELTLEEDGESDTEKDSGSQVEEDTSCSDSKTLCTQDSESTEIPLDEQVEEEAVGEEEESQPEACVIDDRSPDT
Chain of Sodium-dependent noradrenaline transporter (Homo sapiens) (P23975 whole entry): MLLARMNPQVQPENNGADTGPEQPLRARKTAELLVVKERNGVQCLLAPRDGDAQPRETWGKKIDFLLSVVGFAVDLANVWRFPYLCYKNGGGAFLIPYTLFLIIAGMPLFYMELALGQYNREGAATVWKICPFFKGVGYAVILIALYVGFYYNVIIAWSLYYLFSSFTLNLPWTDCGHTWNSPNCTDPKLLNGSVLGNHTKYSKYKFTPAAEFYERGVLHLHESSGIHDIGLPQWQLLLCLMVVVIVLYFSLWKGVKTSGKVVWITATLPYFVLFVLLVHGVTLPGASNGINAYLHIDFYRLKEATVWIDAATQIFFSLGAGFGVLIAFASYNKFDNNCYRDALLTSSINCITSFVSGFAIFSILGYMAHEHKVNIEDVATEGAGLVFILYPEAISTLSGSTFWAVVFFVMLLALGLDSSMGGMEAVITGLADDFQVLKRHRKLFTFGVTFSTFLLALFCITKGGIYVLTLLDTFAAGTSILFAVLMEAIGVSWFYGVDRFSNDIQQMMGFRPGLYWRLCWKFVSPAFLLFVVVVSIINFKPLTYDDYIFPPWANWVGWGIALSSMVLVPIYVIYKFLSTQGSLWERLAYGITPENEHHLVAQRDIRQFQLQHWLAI
Chain of P2X purinoceptor (Oryctolagus cuniculus) (G1U3D6 as listed by the source): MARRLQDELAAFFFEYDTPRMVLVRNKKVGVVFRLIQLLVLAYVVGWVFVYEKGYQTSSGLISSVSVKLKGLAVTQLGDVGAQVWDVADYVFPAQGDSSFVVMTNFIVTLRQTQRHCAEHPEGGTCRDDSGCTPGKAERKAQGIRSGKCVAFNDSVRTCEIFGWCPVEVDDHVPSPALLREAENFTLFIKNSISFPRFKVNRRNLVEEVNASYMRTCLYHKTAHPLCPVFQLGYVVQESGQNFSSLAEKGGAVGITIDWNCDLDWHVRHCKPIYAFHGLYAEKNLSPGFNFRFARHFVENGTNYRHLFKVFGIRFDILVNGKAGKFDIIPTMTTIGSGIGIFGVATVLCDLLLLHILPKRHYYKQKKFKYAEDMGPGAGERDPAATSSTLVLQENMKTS
Chain of Prostaglandin G/H synthase 1 (Homo sapiens) (P23219 whole entry): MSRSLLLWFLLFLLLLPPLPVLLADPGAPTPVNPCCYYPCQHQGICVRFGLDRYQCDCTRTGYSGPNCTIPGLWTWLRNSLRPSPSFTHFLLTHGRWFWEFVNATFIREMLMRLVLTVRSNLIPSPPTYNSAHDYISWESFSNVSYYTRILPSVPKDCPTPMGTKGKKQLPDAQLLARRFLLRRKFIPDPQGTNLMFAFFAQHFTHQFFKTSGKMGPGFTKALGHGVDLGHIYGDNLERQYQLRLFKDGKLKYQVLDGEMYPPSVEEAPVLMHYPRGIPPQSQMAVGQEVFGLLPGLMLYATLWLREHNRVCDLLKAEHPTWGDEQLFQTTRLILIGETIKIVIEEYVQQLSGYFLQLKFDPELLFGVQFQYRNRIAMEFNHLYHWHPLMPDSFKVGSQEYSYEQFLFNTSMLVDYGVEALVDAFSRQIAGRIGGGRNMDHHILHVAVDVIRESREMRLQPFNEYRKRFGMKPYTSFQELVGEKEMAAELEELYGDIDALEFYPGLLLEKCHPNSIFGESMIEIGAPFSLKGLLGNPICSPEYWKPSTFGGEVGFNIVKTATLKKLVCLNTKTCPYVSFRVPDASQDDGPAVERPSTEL
Chain of Endothelin receptor type B (Homo sapiens) (P24530 whole entry): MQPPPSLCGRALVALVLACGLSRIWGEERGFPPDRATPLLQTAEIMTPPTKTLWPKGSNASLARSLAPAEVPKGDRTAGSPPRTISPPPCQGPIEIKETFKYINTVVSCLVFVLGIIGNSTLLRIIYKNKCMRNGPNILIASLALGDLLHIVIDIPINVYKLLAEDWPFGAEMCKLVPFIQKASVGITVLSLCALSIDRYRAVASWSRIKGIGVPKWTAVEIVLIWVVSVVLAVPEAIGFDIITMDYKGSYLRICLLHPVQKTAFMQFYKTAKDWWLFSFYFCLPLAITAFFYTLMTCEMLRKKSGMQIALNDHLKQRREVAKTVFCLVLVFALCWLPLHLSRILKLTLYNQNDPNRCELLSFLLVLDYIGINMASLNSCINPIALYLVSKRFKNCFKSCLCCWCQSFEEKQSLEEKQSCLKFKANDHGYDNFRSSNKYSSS

On to `COCCCS(=O)(=O)c1cc(C)c(-c2ccc(F)c3c2CC[C@H]3Oc2ccc3c(c2)OC[C@H]3CC(=O)O)c(C)c1`, for which the residual activity is 103% in data set [1]; 88% in data set [2]; 83% in data set [4]; 95% in data set [5]; 101% in data set [6]; 103% in [7]. Also, in [3], the inhibition is -8.43%. Moreover, the activity at 10 µM in data set [8] is recorded as 94% (not active).

As for `Cc1cc(OCCC(C)(C)O)cc(C)c1-c1ccc(F)c2c1CC[C@H]2Oc1ccc2c(c1)OC[C@H]2CC(=O)O`, the residual activity in data set [9] is 103%; in [10], 63%; in data set [11], 68%; in [12], 84%; in data set [13] (Compound concentration 0.1 uM), 93%; in data set [13] (Compound concentration 0.3 uM) it was 90%. Also, the residual activity in [13] (Compound concentration 1.0 uM) is 83%; in data set [13] (Compound concentration 3.0 uM), 64%; in data set [13] (Compound concentration 10.0 uM) it was 5.5%; in data set [14] it was 83%; in [15] it was 87%; in [17] it was 122%. Besides, the residual activity in data set [18] was 92%; in [19], 106%; in data set [20], 100%. In [16], the inhibition was -8.92%.

As usually defined, the inhibition is the drop in the measured response relative to a control, in per cent.
